Legend:
[1] = system: Adriamycin resistant strain 2780 AD cells of human ovarian cancer A2780 cells; assay: Potentiating effect on incorporation of 3H-vincristine into adriamycin-resistant cancer cells; format: cell-based; conditions: Homo sapiens, 2780AD, 2 h, 20 nM 3H-vincristine, control = 100, read-out: 3H-vincristine accumulation; for activity at 1 µg/mL: compound 1 μg/ml; for activity at 10 µg/mL: compound 10 μg/ml
Procedure: Potentiating Effect of the Compounds on Incorporation of Anticancer Drugs into Drug-resistant Cancer Cells
Adriamycin resistant strain 2780 AD cells of human ovarian cancer A2780 cells (A. M. Rogan et al., Science 224, 994-996, 1984) were suspended at a concentration of 1×10^6 /ml in RPMI-1640 medium supplemented with 5% fetal calf serum, and 1 ml of the cancer cell suspension was dispensed into each well of a multi-well culture plate (24 wells, […] in diameter) and then incubated at 37° C. in an atmosphere of 5% CO2. After 24 hours incubation, the medium in each well was replaced by 0.5 ml of RPMI-1640 medium supplemented containing 20 nM ^3 H-vincristine (1×10^4 dpm/pmol), 5% fetal calf serum and 10 mM Hepes buffer. Five microliters of a solution of the compound to be tested, which had been dissolved in DMSO and diluted with […] (at a concentration of 1.0 microgram/ml or 10.0 micrograms/ml), was added to each well and the incubation was continued at 37° C. in 5% CO2 for 2 hours. The resultant cells were washed in cold saline-phosphate buffer. In each well was added 0.5 ml of 0.2N NaOH, and the resulting cell suspension in each well was independently transferred into a vial and then heated in a water bath at 56° C. for 30-60 minutes to dissolve the cells. After adding 4 ml of acid aquazole 2, the amount of ^3 H-vincristine incorporated into the cells was determined by a fluid scintillation counter.

[2] = system: Vincristine-resistant strain P388/VCR cells of mouse leukemia P388 cells; assay: Potentiating effect on vincristine in mice having vincristine-resistant mouse leukemia (survival); format: in vivo, mouse (female CDFI mice); conditions: compound 30 mg/kg + vincristine 100 ug/kg, peritoneal, once a day for 5 days; for T/C (rate of life prolongation): control = 100
[3] = system: Adriamycin resistant strain K562/ADM cells of human myeloleukemia K562 cells; assay: Potentiating effect on activity of vincristine against adriamycin-resistant cells (growth inhibition); format: cell-based; conditions: Homo sapiens, K562, read-out: IC50 (vincristine concentration at which 50% of the growth was inhibited)
Text: Potentiating Effect of the Compounds on Activity of Anticancer Drugs

Compound | activity at 1 µg/mL [1] | Average surviving period [2] | T/C (rate of life prolongation) [2] | activity at 10 µg/mL [1] | IC50 [3]
OC(COc1cccc2ncccc12)CN1CCC(C(O)(c2ccccc2)c2ccccc2)CC1 (stereo not shown) [Example 7, 5-[3-(4-(Diphenyl-hydroxymethyl)piperidine-1-yl)-2-hydroxypropoxy]quinoline] | 972% | 12.9 ± 0.5 days | 123% | – | –
CN(CCCN1c2ccccc2CCc2ccccc21)CC(O)COc1cccc2ncccc12 (stereo not shown) [Example 82, 5-[3-(N-Methyl-N-(3-(5H-10,11-dihydrodibenzo(b,f)-azepin-5-yl)propyl)amino]-2-hydroxypropoxy]quinoline] | 667% | 11.2 ± 1.4 days | 105% | – | –
OC(COc1cccc2ncccc12)CN1CCN(C(c2ccccc2)c2ccccn2)CC1 (stereo not shown) [Example 15, 5-[2-Hydroxy-3-(4-(phenyl-2-pyridylmethyl)piperazine-1-yl)propoxy]quinoline] | 840% | 12.3 ± 0.4 days | 117% | – | –
c1ccc2c(c1)CCc1ccccc1C2N1CCN(CCCOc2cccc3ncccc23)CC1 [Example 83, 5-[3-(4-(Dibenzosuberane-5-yl)piperazine-1-yl)propoxy]quinoline] | 957% | 13.5 ± 0.5 days | 126% | – | –
O=C(CCN1CCN(C2c3ccccc3CCc3ccccc32)CC1)Nc1cccc2ncccc12 [Example 36] | 821% | 12.6 ± 0.9 days | 122% | 716% | –
OC(COc1cccc2ncccc12)CN1CCC(C2c3ccccc3CCc3ccccc32)CC1 (stereo not shown) [Example 81, 5-[3-(4-(Dibenzosuberane-5-yl)piperidine-1-yl)-2-hydroxypropoxy]quinoline] | 992% | 13.2 ± 0.9 days | 123% | – | –
COc1ccc2c(OCC(O)CN3CCN(C(c4ccccc4)c4ccccc4)CC3)cccc2n1 (stereo not shown) [Example 42, 5-[3-(4-Diphenylmethylpiperazine-1-yl)-2-hydroxypropoxy]-2-methoxyquinoline] | 624% | 13.9 ± 2.4 days | 126% | – | –
Cc1cc(C)c2c(OCC(O)CN3CCN(C4c5ccccc5CCc5ccccc54)CC3)cccc2n1 (stereo not shown) [Example 22, 5-[3-(4-(Dibenzosuberane-5-yl)piperazine-1-yl)-2-hydroxypropoxy]-2,4-dimethylquinoline] | 723% | 13.9 ± 0.4 days | 132% | 743% | –
O=C(N1CCN(CC(O)COc2cccc3ncccc23)CC1)N1c2ccccc2CCc2ccccc21 (stereo not shown) [Example 60, 5-[3-(4-(Iminodibenzyl-5-carbonyl)piperazine-1-yl)-2-hydroxypropoxy]quinoline] | 643% | 12.4 ± 0.7 days | 117% | 760% | –
CC[C@]1(O)C[C@H]2CN(CCc3c([nH]c4ccccc34)[C@@](C(=O)OC)(c3cc4c(cc3OC)N(C=O)[C@H]3[C@@](O)(C(=O)OC)[C@H](OC(C)=O)[C@]5(CC)C=CCN6CC[C@]43[C@@H]65)C2)C1 [Vincristine, vincristine, reference compound] | – | – | – | – | 0.655 µg/mL
OC(COc1cccc2ncccc12)CN1CCC(C2(O)c3ccccc3CCc3ccccc32)CC1 (stereo not shown) [Example 78, 5-[2-Hyroxy-3-(4-(5-hydroxydibenzosuberane-5-yl)piperidine-1-yl)propoxy]quinoline] | 943% | 12.8 ± 0.8 days | 120% | – | –
CCc1cnc2cccc(OCC(O)CN3CCN(C(c4ccccc4)c4ccccc4)CC3)c2c1 (stereo not shown) [Example 12, 3-Ethyl-5-[3-(4-diphenylmethylpiperazine-1-yl)-2-hydroxypropoxy]quinoline] | 568% | 12.5 ± 0.5 days | 114% | 831% | –
COc1ccc(C(c2cccc(OC)c2OC)N2CCN(CC(O)COc3cccc4ncccc34)CC2)cc1OC (stereo not shown) [Example 11, 5-[3-(4-(2,3,3',4'-Tetramethoxydiphenylmethyl)piperazine-1-yl)-2-hydroxypropoxy]quinoline] | 735% | 12.1 ± 0.5 days | 115% | – | –
CCN(CCN(CC)C(c1ccccc1)c1ccccc1)CC(O)COc1cccc2ncccc12 (stereo not shown) [Example 10, 5-(3-[N-(2-(N-Diphenylmethyl-N-ethylamino)ethyl)-N-ethylamino]-2-hydroxypropoxy)quinoline] | 642% | 12.3 ± 1.4 days | 112% | 932% | –
O=C(CCN1CCN(C(c2ccccc2)c2ccccc2)CC1)Nc1cccc2ncccc12 [Example 35, 5-[3-(4-Diphenylmethypiperazine-1-yl)propionamido]-quinoline] | 654% | 11.9 ± 0.7 days | 116% | 627% | –
Cc1cc(C)c2c(OCC(O)CN3CCN(C4c5ccccc5COc5ccccc54)CC3)cccc2n1 (stereo not shown) [Example 21, 2,4-Dimethyl-5-[3-(4-(6,11-dihydrodibenzo[b,e]oxepine-11-yl)piperazine-1-yl)-2-hydroxypropoxy]quinoline] | 727% | 12.5 ± 0.6 days | 121% | 745% | –
c1ccc(C(=C2CCN(CCCOc3cccc4ncccc34)CC2)c2ccccc2)cc1 [Example 84, 5-[3-(4-(Diphenylmethylene)piperidine-1-yl)propoxy]quinoline] | 159% | 13.0 ± 0.7 days | 121% | 878% | –
Cc1cc(C)c2c(OCC(O)CN3CCN(C(=O)C(c4ccccc4)c4ccccc4)CC3)cccc2n1 (stereo not drawn) [Example 53, 2,4-Dimethyl-5-[3-((α,α-diphenylacetyl)piperazine-1-yl)-2-hydroxypropoxy]quinoline] | 658% | 11.8 ± 0.8 days | 111% | 794% | –
OC(COc1cccc2nc(Cl)ccc12)CN1CCN(C2c3ccccc3CCc3ccccc32)CC1 (stereo not shown) [Example 18, 5-[3-(4-(5-Dibenzosuberanyl)piperazine-1-yl)-2-hydroxypropoxy]-2-chloroquinoline] | 743% | 13.8 ± 0.4 days | 131% | 761% | –
CN(CCN(C)C(c1ccccc1)c1ccccc1)CC(O)COc1cccc2ncccc12 (stereo not shown) [Example 3, 5-(3-[N-(2-(N-Diphenylmethyl-N-methylamino)ethyl)-N-methylamino]-2-hydroxypropoxy)quinoline] | 731% | 11.0 ± 0.6 days | 100% | 774% | –
COc1ccc(C(c2ccc(OC)cc2)N2CCN(CC(O)COc3cccc4ncccc34)CC2)cc1 (stereo not shown) [Example 59, 5-(3-[4-(Bis-(4-methoxyphenyl)methyl)piperazine-1-yl] -2-hydroxypropoxy)quinoline] | 561% | 13.2 ± 1.2 days | 125% | 685% | –
OC(COc1cccc2nc(Cl)ccc12)CN1CCN(C(c2ccccc2)c2ccccc2)CC1 (stereo not shown) [Example 41, 2-Chloro-5-[3-(4-diphenylmethylpiperazine-1-yl)-2-hydroxypropoxy]quinoline] | 584% | 13.2 ± 1.8 days | 120% | – | –
OC(COc1cccc2ncccc12)CN1CCN(CC(c2ccccc2)c2ccccc2)CC1 (stereo not shown) [Example 17, 5-[3-(4-(2,2-Diphenylethyl)piperazine-1-yl)-2-hydroxypropoxy]quinoline] | 730% | 11.8 ± 1.1 days | 115% | – | –
c1ccc(C(c2ccccc2)N2CCN(CCOc3cccc4ncccc34)CC2)cc1 [Example 34, 5-[2-(4-Diphenylmethylpiperazine-1-yl)ethoxy]quinoline] | 785% | 10.8 ± 0.8 days | 98% | – | –
OC(COc1cccc2ncccc12)CN1CCN(C2c3ccccc3C=Cc3ccccc32)CC1 (stereo not shown) [Example 20, 5-[3-(4-(5-Dibenzosuberenyl)piperazine-1-yl)-2-hydroxypropoxy]quinoline] | 794% | 13.7 ± 1.0 days | 133% | – | –

— patent US5405843A, “Quinoline derivatives” (Mitsui Toatsu Chemicals, Incorporated, priority 1988, dated 1995)
